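Test compounds were applied to cells in 96-well plates for 48 hours at 5 doses. At the GI50, growth is halved. TGI denotes the concentration required for complete inhibition of growth.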
Legend:
Assay in all cases: NCI tumour cell line growth inhibition, 48 h
[1] = test system: SW-620 colon
[2] = test system: DU-145 prostate
[3] = test system: TK-10 renal
[4] = test system: NCI-H460 lung
[5] = test system: RXF 393 renal
[6] = test system: K-562 leukemia
[7] = test system: CAKI-1 renal
[8] = test system: OVCAR-5 ovarian
[9] = test system: HT29 colon
[10] = test system: HL-60(TB) leukemia
[11] = test system: NCI-H522 lung
[12] = test system: SK-MEL-28 melanoma
[13] = test system: A549 NSCLC
[14] = test system: LOX IMVI melanoma
[15] = test system: CCRF-CEM leukemia
[16] = test system: SK-MEL-5 melanoma
[17] = test system: HCC-2998 colon
[18] = test system: U251 CNS
[19] = test system: HCT-15 colon
[20] = test system: SK-MEL-2 melanoma
[21] = test system: UACC-62 melanoma
[22] = test system: MDA-MB-231 breast
[23] = test system: MOLT-4 leukemia
[24] = test system: MDA-MB-435
[25] = test system: OVCAR-8 ovarian
[26] = test system: SF-295 CNS
[27] = test system: OVCAR-4 ovarian
[28] = test system: SNB-75 CNS
[29] = test system: MALME-3M melanoma
[30] = test system: IGROV1 ovarian
[31] = test system: HS 578T breast
[32] = test system: KM12 colon
[33] = test system: A498 renal
[34] = test system: ACHN renal
[35] = test system: HOP-62 NSCLC
[36] = test system: NCI-H23 lung
[37] = test system: NCI-H226 lung
[38] = test system: SF-539 CNS
[39] = test system: HOP-92 NSCLC
[40] = test system: M14 melanoma
[41] = test system: NCI/ADR-RES ovarian
[42] = test system: T-47D breast
[43] = test system: SN12C renal
[44] = test system: SF-268 CNS
[45] = test system: UO-31 renal
[46] = test system: BT-549 breast
[47] = test system: SNB-19 CNS
[48] = test system: HCT-116 colon
[49] = test system: UACC-257 melanoma
[50] = test system: 786-0 renal
[51] = test system: PC-3 prostate
[52] = test system: COLO 205 colon
[53] = test system: EKVX NSCLC
[54] = test system: SK-OV-3 ovarian
[55] = test system: OVCAR-3 ovarian

Structure (SMILES): CC(C)c1ccc(Cn2ccc3c4c(N)nc(NC5CC5)nc4ccc32)cc1
- GI50 [1]: 0.326 µM
- TGI [1]: 1.32 µM
- GI50 [2]: 0.399 µM
- TGI [2]: 1.38 µM
- GI50 [3]: 1.23 µM
- TGI [3]: 2.57 µM
- GI50 [4]: 0.198 µM
- TGI [4]: 1.07 µM
- GI50 [5]: 0.172 µM
- TGI [5]: 0.58 µM

Structure (SMILES): COc1cc(/C=C/C(=O)/C=C/c2cc(OC)c3c(c2)OCO3)cc2c1OCO2
- GI50 [6]: 22.9 µM
- TGI [6]: > 100 µM
- GI50 [7]: > 100 µM
- TGI [7]: > 100 µM
- GI50 [8]: > 100 µM
- TGI [8]: > 100 µM
- GI50 [9]: 2.64 µM
- TGI [9]: 6.7 µM
- GI50 [10]: 63.4 µM
- TGI [10]: > 100 µM
- GI50 [11]: 14.5 µM
- TGI [11]: > 100 µM
- GI50 [12]: 39 µM
- TGI [12]: > 100 µM
- GI50 [13]: 3.05 µM
- TGI [13]: 15.1 µM
- GI50 [14]: 1.89 µM
- TGI [14]: 4.35 µM
- GI50 [15]: 5.95 µM
- TGI [15]: > 100 µM
- GI50 [16]: 5.59 µM
- TGI [16]: > 100 µM
- GI50 [17]: 1.98 µM
- TGI [17]: 3.73 µM
- GI50 [18]: 2.19 µM
- TGI [18]: 6.45 µM
- GI50 [1]: 3.38 µM
- TGI [1]: > 100 µM
- GI50 [2]: 18.4 µM
- TGI [2]: > 100 µM
- GI50 [19]: 4.42 µM
- TGI [19]: > 100 µM
- GI50 [20]: > 100 µM
- TGI [20]: > 100 µM
- GI50 [21]: 16.3 µM
- TGI [21]: > 100 µM
- GI50 [22]: 7.89 µM
- TGI [22]: > 100 µM
- GI50 [23]: 9 µM
- TGI [23]: > 100 µM
- GI50 [24]: 1.92 µM
- TGI [24]: 4.22 µM
- GI50 [25]: 2.83 µM
- TGI [25]: 12.9 µM
- GI50 [26]: 11.3 µM
- TGI [26]: > 100 µM
- GI50 [27]: 52.8 µM
- TGI [27]: > 100 µM
- GI50 [3]: 30.3 µM
- TGI [3]: > 100 µM
- GI50 [4]: > 100 µM
- TGI [4]: > 100 µM
- GI50 [28]: 8.55 µM
- TGI [28]: 42.5 µM
- GI50 [29]: > 100 µM
- TGI [29]: > 100 µM
- GI50 [30]: 4.78 µM
- TGI [30]: > 100 µM
- GI50 [31]: 95.3 µM
- TGI [31]: > 100 µM
- GI50 [32]: 1.98 µM
- TGI [32]: 4.07 µM
- GI50 [33]: > 100 µM
- TGI [33]: > 100 µM
- GI50 [34]: 7.25 µM
- TGI [34]: > 100 µM
- GI50 [5]: 2.65 µM
- TGI [5]: 6.57 µM
- GI50 [35]: 4.46 µM
- TGI [35]: > 100 µM
- GI50 [36]: 7.69 µM
- TGI [36]: > 100 µM
- GI50 [37]: 34.8 µM
- TGI [37]: > 100 µM
- GI50 [38]: 22.6 µM
- TGI [38]: > 100 µM
- GI50 [39]: 58.5 µM
- TGI [39]: > 100 µM
- GI50 [40]: 4.03 µM
- TGI [40]: 19.4 µM
- GI50 [41]: 52.8 µM
- TGI [41]: > 100 µM
- GI50 [42]: 9.62 µM
- TGI [42]: > 100 µM
- GI50 [43]: 30.9 µM
- TGI [43]: > 100 µM
- GI50 [44]: 5.47 µM
- TGI [44]: > 100 µM
- GI50 [45]: 5.77 µM
- TGI [45]: > 100 µM
- GI50 [46]: 3.02 µM
- TGI [46]: 8.81 µM
- GI50 [47]: 10.3 µM
- TGI [47]: > 100 µM
- GI50 [48]: 1.21 µM
- TGI [48]: 2.78 µM
- GI50 [49]: 3.52 µM
- TGI [49]: 41.9 µM
- GI50 [50]: 9.63 µM
- TGI [50]: > 100 µM
- GI50 [51]: 72.2 µM
- TGI [51]: > 100 µM
- GI50 [52]: 4.86 µM
- TGI [52]: > 100 µM
- GI50 [53]: > 100 µM
- TGI [53]: > 100 µM
- GI50 [54]: 3.46 µM
- TGI [54]: 48.2 µM
- GI50 [55]: 7.66 µM
- TGI [55]: > 100 µM
